14 molecules from patent US20120220562A1, “Anti-Viral Compounds” (ABBOTT LABAORATORIES, priority 2011, published 2012) can be followed below.

pEC50: −log10 of the molar value.

The experiment deals with HCV 1b-Con1 replicon. Kind of experiment: HCV 1b-Con1 replicon assay in the presence of 5% FBS. The experiment is classed as cell-based. To be noted: Hepatitis C virus. For orientation: In antiviral work, replicon cells carry a viral genome segment that copies itself.
As a reminder, the pEC50 is the EC50 on a negative log10 scale, so that one unit is a factor of ten. Regarding `COC(=O)N[C@H](C(=O)N1CCC[C@H]1c1nc2c(F)c([C@H]3CC[C@H](c4ccc5nc([C@@H]6CCCN6C(=O)[C@@H](NC(=O)OC)C(C)C)[nH]c5c4F)N3c3ccc(C(C)(C)C)cc3)ccc2[nH]1)C(C)C` [Example 6.3, methyl {(2S)-1-[(2S)-2-{5-[(2R,5R)-1-(4-tert-butylphenyl)-5-{7-fluoro-2-[(2S)-1-{(2S)-2-[(methoxycarbonyl)amino]-3-methylbutanoyl}pyrrolidin-2-yl]-1H-benzimidazol-6-yl}pyrrolidin-2-yl]-4-fluoro-1H-benzimidazol-2-yl}pyrrolidin-1-yl]-3-methyl-1-oxobutan-2-yl}carbamate], the pEC50 was more than 10.00.
As for `COC(=O)N[C@H](C(=O)N1CCC[C@H]1c1nc2cc([C@H]3CC[C@H](c4ccc5[nH]c([C@@H]6CCCN6C(=O)[C@@H](NC(=O)OC)C(C)C)nc5c4)N3c3cc(F)c(N4CCN(c5ccc(C(F)(F)F)cc5)CC4)c(F)c3)ccc2[nH]1)C(C)C` [Example 2.17, methyl {(2S)-1-[(2S)-2-{5-[(2R,5R)-1-(3,5-difluoro-4-{4-[4-(trifluoromethyl)phenyl]piperazin-1-yl}phenyl)-5-{2-[(2S)-1-(2S)-2-[(methoxycarbonyl)amino]-3-methylbutanoylpyrrolidin-2-yl]-1H-benzimidazol-5-yl}pyrrolidin-2-yl]-1H-benzimidazol-2-yl}pyrrolidin-1-yl]-3-methyl-1-oxobutan-2-yl}carbamate], the pEC50 is more than 10.00.
For `COC(=O)N[C@H](C(=O)N1CCC[C@H]1c1nc2cc([C@H]3CC[C@H](c4ccc5[nH]c([C@@H]6CCCN6C(=O)[C@@H](NC(=O)OC)C(C)C)nc5c4)N3c3cc(F)c(N4CCC(c5cccc([Si](C)(C)C)c5)CC4)c(F)c3)ccc2[nH]1)C(C)C` [Example 3.43, methyl {(2S)-1-[(2S)-2-{5-[(2R,5R)-1-(3,5-difluoro-4-{4-[3-(trimethylsilyl)phenyl]piperidin-1-yl}phenyl)-5-{2-[(2S)-1-{(2S)-2-[(methoxycarbonyl)amino]-3-methylbutanoyl}pyrrolidin-2-yl]-1H-benzimidazol-5-yl}pyrrolidin-2-yl]-1H-benzimidazol-2-yl}pyrrolidin-1-yl]-3-methyl-1-oxobutan-2-yl}carbamate] the value was more than 10.00.
For `COC(=O)N[C@H](C(=O)N1C[C@@H](F)C[C@H]1c1nc2cc([C@H]3CC[C@H](c4ccc5[nH]c([C@@H]6C[C@H](F)CN6C(=O)[C@@H](NC(=O)OC)C(C)C)nc5c4)N3c3cc(F)c(N4CCCCC4)c(F)c3)ccc2[nH]1)C(C)C` [Example 3.8, methyl {(2S)-1-[(2S,4S)-2-{5-[(2R,5R)-1-[3,5-difluoro-4-(piperidin-1-yl)phenyl]-5-{2-[(2S,4S)-4-fluoro-1-{(2S)-2-[(methoxycarbonyl)amino]-3-methylbutanoyl}pyrrolidin-2-yl]-1H-benzimidazol-5-yl}pyrrolidin-2-yl]-1H-benzimidazol-2-yl}-4-fluoropyrrolidin-1-yl]-3-methyl-1-oxobutan-2-yl}carbamate], the pEC50 is more than 10.00.
In the case of `COC(=O)N[C@H](C(=O)N1CCC[C@H]1c1nc2cc([C@H]3CC[C@H](c4ccc5[nH]c([C@@H]6CCCN6C(=O)[C@@H](NC(=O)OC)C(C)C)nc5c4)N3c3cc(F)c(N4CCC(C(C)=O)(c5ccccc5)CC4)c(F)c3)ccc2[nH]1)C(C)C` [Example 4.17, methyl {(2S)-1-[(2S)-2-{5-[(2R,5R)-1-[4-(4-acetyl-4-phenylpiperidin-1-yl)-3,5-difluorophenyl]-5-{2-[(2S)-1-{(2S)-2-[(methoxycarbonyl)amino]-3-methylbutanoyl}pyrrolidin-2-yl]-1H-benzimidazol-5-yl}pyrrolidin-2-yl]-1H-benzimidazol-2-yl}pyrrolidin-1-yl]-3-methyl-1-oxobutan-2-yl}carbamate], the pEC50 is more than 10.00.
On to `COC(=O)N[C@H](C(=O)N1CCC[C@H]1c1nc2cc([C@H]3CC[C@H](c4cc5nc([C@@H]6CCCN6C(=O)[C@@H](NC(=O)OC)C(C)C)[nH]c5cc4F)N3c3cc(F)c(N4CCC(C5CCCCC5)CC4)c(F)c3)c(F)cc2[nH]1)C(C)C` [Example 4.54, methyl {(2S)-1-[(2S)-2-{5[(2R,5R)-1-[4-(4-cyclohexylpiperidin-1-yl)-3,5-difluorophenyl]-5-{6-fluoro-2-[(2S)-1-{(2S)-2-[(methoxycarbonyl)amino]-3-methylbutanoyl}pyrrolidin-2-yl]-1H-benzimidazol-5-yl}pyrrolidin-2-yl]-6-fluoro-1H-benzimidazol-2-yl}pyrrolidin-1-yl]-3-methyl-1-oxobutan-2-yl}carbamate], for which the pEC50 is more than 10.00.
Take `COC(=O)N[C@H](C(=O)N1CCC[C@H]1c1nc2ccc([C@H]3CC[C@H](c4ccc5nc([C@@H]6CCCN6C(=O)[C@@H](NC(=O)OC)C(C)C)[nH]c5c4)N3c3cc(F)c(N4CCC(c5cccc6ccccc56)CC4)c(F)c3)cc2[nH]1)C(C)C` [Example 2.15, methyl {(2S)-1-[(2S)-2-{5-[(2R,5R)-1-{3,5-difluoro-4-[4-(1-naphthyl)piperidin-1-yl]phenyl}-5-{2-[(2S)-1-{(2S)-2-[(methoxycarbonyl)amino]-3-methylbutanoyl}pyrrolidin-2-yl]-1H-benzimidazol-5-yl}pyrrolidin-2-yl]-1H-benzimidazol-2-yl}pyrrolidin-1-yl]-3-methyl-1-oxobutan-2-yl}carbamate]: the pEC50 is more than 10.00.
Regarding `COC(=O)N[C@H](C(=O)N1C[C@H](F)C[C@H]1c1nc2cc([C@H]3CC[C@H](c4ccc5[nH]c([C@@H]6C[C@@H](F)CN6C(=O)[C@@H](NC(=O)OC)C(C)C)nc5c4)N3c3cc(F)c(N4CCCCC4)c(F)c3)ccc2[nH]1)C(C)C` [Example 4.59, methyl {(2S)-1-[(2S,4R)-2-{5-[(2R,5R)-1-[3,5-difluoro-4-(piperidin-1-yl)phenyl]-5-{2-[(2S,4R)-4-fluoro-1-{(2S)-2-[(methoxycarbonyl)amino]-3-methylbutanoyl}pyrrolidin-2-yl]-1H-benzimidazol-5-yl}pyrrolidin-2-yl]-1H-benzimidazol-2-yl}-4-fluoropyrrolidin-1-yl]-3-methyl-1-oxobutan-2-yl}carbamate], the pEC50 is more than 10.00.
`COC(=O)N[C@H](C(=O)N1CCC[C@H]1c1nc2cc([C@H]3CC[C@H](c4cc5nc([C@@H]6CCCN6C(=O)[C@@H](NC(=O)OC)C(C)C)[nH]c5cc4F)N3c3ccc(N4CCCCC4)c(F)c3)c(F)cc2[nH]1)C(C)C` [Example 6.9, methyl {(2S)-1-[(2S)-2-(6-fluoro-5-{(2R,5R)-5-{6-fluoro-2-[(2S)-1-{(2S)-2-[(methoxycarbonyl)amino]-3-methylbutanoyl}pyrrolidin-2-yl]-1H-benzimidazol-5-yl}-1-[3-fluoro-4-(piperidin-1-yl)phenyl]pyrrolidin-2-yl}-1H-benzimidazol-2-yl)pyrrolidin-1-yl]-3-methyl-1-oxobutan-2-yl}carbamate]: the negative logarithm of the EC50 (pEC50) is more than 10.00.
For the molecule `COC(=O)N[C@H](C(=O)N1CCC[C@H]1c1nc2cc(F)c([C@H]3CC[C@H](c4cc5[nH]c([C@@H]6CCCN6C(=O)[C@@H](NC(=O)OC)C6CCOCC6)nc5cc4F)N3c3cc(F)c(N4CCN(c5ccc(C(F)(F)F)cc5)CC4)c(F)c3)cc2[nH]1)C1CCOCC1` [Example 4.46, dimethyl ([(2R,5R)-1-(3,5-difluoro-4-{4-[4-(trifluoromethyl)phenyl]piperazin-1-yl}phenyl)pyrrolidine-2,5-diyl]bis{(5-fluoro-1H-benzimidazole-6,2-diyl)(2S)pyrrolidine-2,1-diyl[(1S)-2-oxo-1-(tetrahydro-2H-pyran-4-yl)ethane-2,1-diyl]})biscarbamate], the pEC50 is more than 10.00.
With `COC(=O)N[C@H](C(=O)N1CCC[C@H]1c1nc2cc([C@H]3CC[C@H](c4ccc5[nH]c([C@@H]6CCCN6C(=O)[C@@H](NC(=O)OC)C(C)C)nc5c4)N3c3cc(F)c(N4C[C@H]5CC[C@H]5C4)c(F)c3)ccc2[nH]1)C(C)C` [Example 1.8, methyl {(2S)-1-[(2S)-2-{5-[(2R,5R)-1-{4-[(1R,5S)-3-azabicyclo[3.2.0]hept-3-yl]-3,5-difluorophenyl}-5-{2-[(2S)-1-{(2S)-2-[(methoxycarbonyl)amino]-3-methylbutanoyl}pyrrolidin-2-yl]-1H-benzimidazol-5-yl}pyrrolidin-2-yl]-1H-benzimidazol-2-yl}pyrrolidin-1-yl]-3-methyl-1-oxobutan-2-yl}carbamate], the pEC50 is more than 10.00.
Turning to `COC(=O)N[C@H](C(=O)N1CCC[C@H]1c1nc2ccc([C@H]3CC[C@H](c4ccc5nc([C@@H]6CCCN6C(=O)[C@@H](NC(=O)OC)C(C)C)[nH]c5c4)N3c3cc(F)c(N4CCC(c5ccc6ccccc6c5)CC4)c(F)c3)cc2[nH]1)C(C)C` [Example 2.12, methyl {(2S)-1-[(2S)-2-{5-[(2R,5R)-1-{3,5-difluoro-4-[4-(2-naphthyl)piperidin-1-yl]phenyl}-5-{2-[(2S)-1-{(2S)-2-[(methoxycarbonyl)amino]-3-methylbutanoyl}pyrrolidin-2-yl]-1H-benzimidazol-5-yl}pyrrolidin-2-yl]-1H-benzimidazol-2-yl}pyrrolidin-1-yl]-3-methyl-1-oxobutan-2-yl}carbamate], the pEC50 is more than 10.00.
With `COC(=O)N[C@H](C(=O)N1CCC[C@H]1C(=O)Nc1ccc(C2CC[C@@H](c3ccc(NC(=O)[C@@H]4CCCN4C(=O)[C@@H](NC(=O)OC)C(C)C)cc3)N2c2cc(F)c(N3CCC(c4ccccc4)CC3)c(F)c2)cc1)C(C)C` (stereo partly drawn) [Example 8, dimethyl ({(2S)-1-[3,5-difluoro-4-(4-phenylpiperidin-1-yl)phenyl]pyrrolidine-2,5-diyl}bis{4,1-phenylenecarbamoyl(2S)pyrrolidine-2,1-diyl[(2S)-3-methyl-1-oxobutane-1,2-diyl]})biscarbamate], the negative logarithm of the EC50 (pEC50) was more than 10.00.
The result for `COC(=O)N[C@H](C(=O)N1C[C@@H](OC)C[C@H]1c1nc2cc([C@H]3CC[C@H](c4ccc5[nH]c([C@@H]6C[C@H](OC)CN6C(=O)[C@@H](NC(=O)OC)C(C)C)nc5c4)N3c3ccc(F)cc3)ccc2[nH]1)C(C)C` [Example 3.10, methyl {(2S)-1-[(2S,4S)-2-{5-[(2R,5R)-1-(4-fluorophenyl)-5-{2-[(2S,4S)-4-methoxy-1-{(2S)-2-[(methoxycarbonyl)amino]-3-methylbutanoyl}pyrrolidin-2-yl]-1H-benzimidazol-5-yl}pyrrolidin-2-yl]-1H-benzimidazol-2-yl}-4-methoxypyrrolidin-1-yl]-3-methyl-1-oxobutan-2-yl}carbamate] reads 9.00 to 10.00.
